As usually defined, the IC50 is the concentration at which inhibition is half-maximal.

Experiment [1] deals with T1, CDK2 (Homo sapiens, UniProt P24941). The experiment can be described thus: NanoBRET CDK2 engagement assay. The experiment is classed as cell-based. Details: expressed in transfected cells. Conditions: OVCAR3 cells with stable CDK2-Luciferase vector, 24 hours treatment. As to the method:
OVCAR3 cells with stable transfection of CDK2-Luciferase vector were seeded into 96-well plate at a density of 20,000 cells per well, 50 μL Opti-MEM medium supplemented with 1% FBS. Following morning, cells were treated with compounds of the disclosure, with starting concentration at 3 μM and ½ log dilution down to 0.3 nM for 24 hours at 37° C. DMSO treatment serves as control. Compound engagement was then measured using NanoBRE™ Kinase Kit from Promega (Part Number: CS1810C122, NanoBRET™ TE Kinase Kit #10, 1K) following manufacturer's instruction. For 24 hours treatment, tracer was added only for the last 2 hours. Briefly, 2.5 μL of complete 20× NanoBRET Tracer was added to the cells in suspension. Immediately prior to BRET measurements, prepare 3× Complete NanoBRET® Nano-Glo® Substrate in Opti-MEM without serum and phenol red. Without any delay, 25 μL per well of 3× Complete NanoBRET™ Nano-Glo® Substrate for a 96-well plate was added and mixed well. Signal was then read on a CLARIOstar® plate reader (measure donor emission (e.g., 450 nm) and acceptor emission (e.g., 610 nm or 630 nm) using a NanoBRET™-compatible luminometer. Target engagement was calculated with DMSO treatment as 100% signal, and IC50 was calculated by GraphPad Prism 9.

Experiment [2] deals with T1, CDK2. The experiment can be described thus: Phospho-Rb HTRF measurement in OVCAR3 cells (inhibition of CDK2). The experiment is classed as cell-based. Details: High-Throughput Measurement of Cellular Endogenous CDK2; endogenous in cells; host or cells: OVCAR3. Particulars: pRB(S807/811) assay, 24 h compound treatment. The protocol: Phosphorylation of RB protein at S780 and S807/811 were measured using HTRF phospho-RB cellular kits (Cat #64RBS780PEG and 64RBS807PEG) from Cisbio.
On Day 1, OVCAR3 or KYSE520 cells were seeded into 96-well tissue-culture treated plates at 20,000 cells/well in 200 μL and incubated overnight at 37° C. in CO2 atmosphere. On Day 2, the cells were treated with test compounds at concentrations from 0.3 to 10,000 nM using HP D300 digital dispenser. Twenty-four hours after compound treatment, cell culture media was removed by flicking the plate and tapping the plate against clean paper towel. Immediately 30 μL 1× lysis buffer was supplemented from the kit and the plate was incubated at room temperature on shaker for 30 min. After homogenization by pipetting up and down, 8 μL cell lysate from 96-well cell culture plate was transferred to 384-well small volume white detection plate. 2 μL premixed detection solution was added and the plate was covered with sealer. To prepare the detection solution, d2 conjugated-phospho-RB antibody and Eu-cryptate conjugated phosphor-RB antibody were diluted into detection buffer following manufacturer's instruction. Detection plates were incubated for 4 h at room temperature and read on ClarioStar (BMG Labtech) in TR-FRET mode (665 nM and 620 nM). The TR-FRET ratio (665 nM/620 nM) was plotted against the compound concentration and normalized to DMSO controls. Half maximal inhibition concentration (IC50) values are calculated with a four-parameter logistic fit using GraphPad Prism (version 8; La Jolla, CA).

Regarding `O=C1CCC(N2C(=O)c3cccc(NCCOCCOCCNS(=O)(=O)N4CCC(Nc5ncc6ccc(=O)n(C7CCCC7)c6n5)CC4)c3C2=O)C(=O)N1` (stereo not shown) [Compound 9, 4-((8-cyclopentyl-7-oxo-7,8-dihydropyrido[2,3-d]-pyrimidin-2-yl)amino)-N-(2-(2-(2-((2-(2,6-dioxopiperidin-3-yl)-1,3-dioxoisoindolin-4-yl)-amino)ethoxy)ethoxy)ethyl)piperidine-1-sulfonamide], the half-inhibitory concentration (IC50) was found to be 0.675 µM on CDK2 [1] and 1.81 µM on CDK2 [2].
On to `CN(CCCOCCCc1cccc2c1C(=O)N(C1CCC(=O)NC1=O)C2=O)S(=O)(=O)N1CCC(Nc2ncc3ccc(=O)n(C4CCCC4)c3n2)CC1` (stereo not shown) [Compound 10, 4-((8-cyclopentyl-7-oxo-7,8-dihydropyrido[2,3-d]-pyrimidin-2-yl)amino)-N-(3-(3-(2-(2,6-dioxo-piperidin-3-yl)-1,3-dioxoisoindolin-4-yl)-propoxy)propyl)-N-methylpiperidine-1-sulfonamide], for which the values for the 50% inhibitory concentration (IC50) against CDK2 [1] and on CDK2 [2] were 0.791 µM and 3.79 µM, respectively.
For `O=C1CCC(N2C(=O)c3cccc(CCCOCCOCCNS(=O)(=O)N4CCC(Nc5ncc6ccc(=O)n(C7CCCC7)c6n5)CC4)c3C2=O)C(=O)N1` (stereo not shown) [Compound 11, 4-((8-cyclopentyl-7-oxo-7,8-dihydropyrido[2,3-d]pyrimidin-2-yl)amino)-N-(2-(2-(3-(2-(2,6-dioxopiperidin-3-yl)-1,3-dioxoisoindolin-4-yl)-propoxy)ethoxy)ethyl)piperidine-1-sulfonamide], in that order: 0.499 µM and 2.06 µM.
For `O=C1CCC(N2C(=O)c3ccc(N4CC(Oc5cccc(S(=O)(=O)N6CCC(Nc7ncc8ccc(=O)n(C9CCCC9)c8n7)CC6)c5)C4)cc3C2=O)C(=O)N1` (stereo not shown) [Compound 12, 5-(3-(3-((4-((8-cyclopentyl-7-oxo-7,8-dihydro-pyrido[2,3-d]pyrimidin-2-yl)amino)piperidin-1-yl)sulfonyl)phenoxy)azetidin-1-yl)-2-(2,6-dioxopiperidin-3-yl)isoindoline-1,3-dione], the half-maximal inhibitory concentration (IC50) was found to be 4.78 µM on CDK2 [1] and 0.697 µM at CDK2 [2].
For `Cn1c(=O)n(C2CCC(=O)NC2=O)c2cccc(C#CCOC3CCN(S(=O)(=O)N4CCC(Nc5ncc6ccc(=O)n(C7CCCC7)c6n5)CC4)CC3)c21` (stereo not shown) [Compound 14, 3-(4-(3-((1-((4-((8-cyclopentyl-7-oxo-7,8-dihydropyrido[2,3-d]pyrimidin-2-yl)amino)-piperidin-1-yl)sulfonyl)piperidin-4-yl)oxy)prop-1-yn-1-yl)-3-methyl-2-oxo-2,3-dihydro-1H-benzo[d]imidazol-1-yl)piperidine-2,6-dione], in that order: 0.668 µM and 0.633 µM.
The corresponding values for `CN(C1CCC(Nc2cccc3c2C(=O)N(C2CCC(=O)NC2=O)C3=O)CC1)S(=O)(=O)N1CCC(Nc2ncc3ccc(=O)n(C4CCCC4)c3n2)CC1` (stereo not shown) [Compound 15, 4-((8-cyclopentyl-7-oxo-7,8-dihydropyrido[2,3-d]pyrimidin-2-yl)amino)-N-(4-((2-(2,6-dioxo-piperidin-3-yl)-1,3-dioxoisoindolin-4-yl)amino)-cyclohexyl)-N-methylpiperidine-1-sulfonamide] are 0.356 µM and 2.02 µM.
For `O=C1CCC(N2C(=O)c3ccc(CN4CC(Oc5cccc(S(=O)(=O)N6CCC(Nc7ncc8ccc(=O)n(C9CCCC9)c8n7)CC6)c5)C4)cc3C2=O)C(=O)N1` (stereo not shown) [Compound 17, 5-((3-(3-((4-((8-cyclopentyl-7-oxo-7,8-dihydro-pyrido[2,3-d]pyrimidin-2-yl)amino)piperidin-1-yl)sulfonyl)phenoxy)azetidin-1-yl)methyl)-2-(2,6-dioxopiperidin-3-yl)isoindoline-1,3-dione], in that order: 0.45 µM and 0.245 µM.
In the case of `Cn1c(=O)n(C2CCC(=O)NC2=O)c2cccc(CCCOCCNS(=O)(=O)N3CCC(Nc4ncc5ccc(=O)n(C6CCCC6)c5n4)CC3)c21` (stereo not shown) [Compound 18, 4-((8-cyclopentyl-7-oxo-7,8-dihydropyrido[2,3-d]pyrimidin-2-yl)amino)-N-(2-(3-(1-(2,6-dioxopiperidin-3-yl)-3-methyl-2-oxo-2,3-dihydro-1H-benzo[d]imidazol-4-yl)propoxy)-ethyl)piperidine-1-sulfonamide], the values for the IC50 at CDK2 [1] and on CDK2 [2] were 0.188 µM and 0.7 µM, respectively.
For `CN(CCCOCCCc1cccc2c1n(C)c(=O)n2C1CCC(=O)NC1=O)S(=O)(=O)N1CCC(Nc2ncc3ccc(=O)n(C4CCCC4)c3n2)CC1` (stereo not shown) [Compound 19, 4-((8-cyclopentyl-7-oxo-7,8-dihydropyrido[2,3-d]pyrimidin-2-yl)amino)-N-(3-(3-(1-(2,6-dioxo-piperidin-3-yl)-3-methyl-2-oxo-2,3-dihydro-1H-benzo[d]imidazol-4-yl)propoxy)propyl)-N-methylpiperidine-1-sulfonamide], in that order: 0.253 µM and 0.707 µM.
For `CN(C1CCN(Cc2cccc3c2n(C)c(=O)n3C2CCC(=O)NC2=O)CC1)S(=O)(=O)N1CCC(Nc2ncc3ccc(=O)n(C4CCCC4)c3n2)CC1` (stereo not shown) [Compound 20, 4-((8-cyclopentyl-7-oxo-7,8-dihydropyrido[2,3-d]pyrimidin-2-yl)amino)-N-(1-((1-(2,6-dioxo-piperidin-3-yl)-3-methyl-2-oxo-2,3-dihydro-1H-benzo[d]imidazol-4-yl)methyl)piperidin-4-yl)-N-methylpiperidine-1-sulfonamide], in that order: 0.127 µM and 1.17 µM.
The compound `O=C1CCC(N2C(=O)c3cccc(NCCOCCOCCOCCNCCCS(=O)(=O)N4CCC(Nc5ncc6ccc(=O)n(C7CCCC7)c6n5)CC4)c3C2=O)C(=O)N1` (stereo not shown) [Compound 25, 4-((15-((4-((8-cyclopentyl-7-oxo-7,8-dihydro-pyrido[2,3-d]pyrimidin-2-yl)amino)piperidin-1-yl)sulfonyl)-3,6,9-trioxa-12-azapentadecyl)-amino)-2-(2,6-dioxopiperidin-3-yl)isoindoline-1,3-dione] displayed a half-maximal inhibitory concentration (IC50) on CDK2 [2] of 1.07 µM.
Still for that read-out and setting: to `O=C1CCC(N2C(=O)c3cccc(NC(=O)COCCOCCOCCOCCNS(=O)(=O)N4CCC(Nc5ncc6ccc(=O)n(C7CCCC7)c6n5)CC4)c3C2=O)C(=O)N1` (stereo not shown) [Compound 26, 14-((4-((8-cyclopentyl-7-oxo-7,8-dihydro-pyrido[2,3-d]pyrimidin-2-yl)amino)piperidine)-1-sulfonamido)-N-(2-(2,6-dioxopiperidin-3-yl)-1,3-dioxoisoindolin-4-yl)-3,6,9,12-tetraoxatetradecan-amide] belongs 6.09 µM.
The same measure, in the same setting: as for `O=C1CCC(N2Cc3cc(N4CCC(Oc5cccc(S(=O)(=O)N6CCC(Nc7ncc8ccc(=O)n(C9CCCC9)c8n7)CC6)c5)CC4)ccc3C2=O)C(=O)N1` (stereo not shown) [Compound 33, 3-(5-(4-(3-((4-((8-cyclopentyl-7-oxo-7,8-dihydro-pyrido[2,3-d]pyrimidin-2-yl)amino)piperidin-1-yl)sulfonyl)phenoxy)piperidin-1-yl)-1-oxoiso-indolin-2-yl)piperidine-2,6-dione], the figure is 0.313 µM.
Same read-out and setting: as for `CC1(O)CCCC1n1c(=O)ccc2cnc(NC3CCN(S(=O)(=O)c4cccc(CN5CCN(c6cc7c(cc6F)C(=O)N(C6CCC(=O)NC6=O)C7=O)CC5)c4)CC3)nc21` (stereo not shown) [Compound 44, 2-(2,6-dioxopiperidin-3-yl)-5-fluoro-6-(4-(3-((4-((8-(2-hydroxy-2-methylcyclopentyl)-7-oxo-7,8-dihydropyrido[2,3-d]pyrimidin-2-yl)amino)-piperidin-1-yl)sulfonyl)benzyl)piperazin-1-yl)-isoindoline-1,3-dione], the figure is 0.405 µM; as for `O=C1CCC(N2Cc3cc(N4CC(Oc5cccc(S(=O)(=O)N6CCC(Nc7ncc8ccc(=O)n(C9CCCC9)c8n7)CC6)c5)C4)ccc3C2=O)C(=O)N1` (stereo not shown) [Compound 74, 3-(5-(3-(3-((4-((8-cyclopentyl-7-oxo-7,8-dihydro-pyrido[2,3-d]pyrimidin-2-yl)amino)piperidin-1-yl)sulfonyl)phenoxy)azetidin-1-yl)-1-oxoisoindolin-2-yl)piperidine-2,6-dione], 0.1 µM.

For the origin of these results see patent US20250018049A1, “COMPOUNDS FOR DEGRADING CYCLIN-DEPENDENT KINASE 2 VIA UBIQUITIN PROTEOSOME PATHWAY” (NIKANG THERAPEUTICS, INC., priority 2020, published 2025).
